Marks after values point to notes of the source that are not given here.
Tests used:
[1] = system: mouse model of pain, the hotplate test; assay: Hotplate test (52° C.), withdrawal threshold; assay type: in vivo; conditions: for Withdrawal threshold (sec) Mean +/− SEM: N 13
Protocol: Mice underwent a minimum habituation period of 7 days prior to study commencement. Naïve mice were acclimatised to the procedure room in their home cages, with food and water available ad libitum.
Animals were treated with either treatment vehicle, (+)-trans-THC at 3, 10, 30 and 300 mg/kg at 10 ml/kg i.p. or Morphine 10 mg/kg or Morphine vehicle (Saline) at 10 ml/kg i.p.
Animals were placed onto a hot plate set at 52° C. and time to withdrawal threshold (first response of lifting, licking front or hind paws or trying to escape) was taken at 1-hour post treatment, or at 0.5 hour after the positive control.
Animals were culled by a schedule 1 method, immediately after the measurement.
Data were analysed by comparing withdrawal thresholds back to Vehicle treated group.

[2] = system: mouse supramaximal electroshock seizure (MES) model of generalized seizures; assay: Maximal electroshock (MES) test, number of tonic convulsions; assay type: in vivo; conditions: for % change from vehicle (number of tonic clonic seizures after MES): 250 mg/kg I.P., pre-treatment time 30 mins, N 16
Protocol: Mice were administered MES (30 mA, rectangular current: 0.6 ms pulse width, 0.2 s duration, 50 Hz) via corneal electrodes connected to a constant current shock generator (Ugo Basile: type 7801) to reliably produce tonic hind limb convulsions. The number of tonic convulsions was recorded.
Sixteen mice were studied per group. The test was performed blind.
The test substance, (+)-trans-THC, was evaluated at 4 doses (3, 10, 30 and 300 mg/kg), administered i.p. 60 minutes before MES, and compared with a vehicle control group (administered under the same experimental conditions).
Valproate (positive control) was administered at 250 mg/kg i.p. 30 minutes before MES, was used as a reference substance and was compared with a vehicle group (administered i.p. 60 minutes before MES).
Data was analysed by comparing treated groups with the appropriate vehicle control using 2-tailed Fisher's Exact Probability tests (p<0.05 considered significant).

[3] = depending on the assay; cited from earlier work

For `CN1CC[C@]23c4c5ccc(O)c4O[C@H]2[C@@H](O)C=C[C@H]3[C@H]1C5` [Morphine], the “Withdrawal threshold (sec) Mean +/− SEM” value ([1]; 10 mg/kg I.P., 0.5 hour after treatment) was 20.25 +/− 1.71 *** sec and the “Withdrawal threshold (sec) Mean +/− SEM” value ([1]; 10 mg/kg I.P., 0.5 hour after treatment, listed as morphine) was “significant increase in the withdrawal threshold compared to vehicle”.
In the case of `CCCC(CCC)C(=O)O` [Valproate], the “% change from vehicle (number of tonic clonic seizures after MES)” value [2] is reported as 100.0% and the “% change from vehicle (number of tonic clonic seizures after MES)” value ([2]; listed as valproate) is reported as 100%.
In the case of `CCCCCc1cc(O)c2c(c1)OC(C)(C)[C@H]1CCC(C)=C[C@H]21` (relative stereo) [(+)-trans-THC, (+)-trans-tetrahydrocannabinol], the “Anti-convulsant effect in the MES model (overall conclusion)” value ([2]; 3, 10, 30 and 300 mg/kg i.p.) is reported as “no anti-convulsant effect”, the “Withdrawal threshold (sec) Mean +/− SEM” value ([1]; 3 mg/kg I.P., 1-hour post treatment) is reported as 11.05 ± 0.72 s and the “Withdrawal threshold (sec) Mean +/− SEM” value ([1]; 10 mg/kg I.P., 1-hour post treatment) is reported as 12.63 ± 0.81 s. The “Withdrawal threshold (sec) Mean +/− SEM” value ([1]; 30 mg/kg I.P., 1-hour post treatment) was 13.38 ± 1.03 s and the “Anti-nociceptive effect in an animal model of pain (overall conclusion)” value ([1]; hotplate, 3-300 mg/kg i.p.) was “exhibits an anti-nociceptive effect”.
For `CCCCCc1cc(O)c2c(c1)OC(C)(C)[C@@H]1CCC(C)=C[C@@H]21` [(−)-trans-THC, (−)-trans-tetrahydrocannabinol], the “Potency relative to the (+)-trans-THC isomer” value [3] is listed as 6-100 times.
